Test results taken from patent publication EP1268431B1 (Wyeth, priority 2000, dated 2001).
pIC50: −log10 of the molar value. Values joined by “and” are separate entries in the source; they are usually repeats but may differ in a detail not shown here. Equal values may be shown once. Read-outs that look alike come from different tables or passages of the source.

Legend:
c-Src = biological target: T1, c-Src (Homo sapiens, UniProt P12931); experiment: c-Src Kinase Assay (ELISA format); type: biochemical
T1 construct: purchased Upstate Biotechnologies
How it was run: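 Partially purified Src preincubated with compound and biotinylated peptide 10 min at 30 °C in Tris-HCl pH 7.5 with MgCl2, EGTA, vanadate; ATP-started reaction ran 1 h at 30 °C, EDTA-stopped. Phosphopeptide captured on streptavidin, detected by HRP anti-phosphotyrosine; % inhibition = (1 − Abs/Abs(max)) × 100.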

[1] = system: Rat2 fibroblasts stably transformed with a plasmid containing a CMV promotor controlled v-Src/Hu c-Src fusion gene; experiment: Anchorage Independent Src-transformed Fibroblast Proliferation Assay
[2] = Rattus norvegicus, Rat2, 120 h, read-out: anch-indep src-tx fib IC50, suspension growth, MTS on Day 5
[3] = read-out: anch-indep src-tx fib IC50, suspension growth, MTS on Day 5

Row | Compound | pIC50 (c-Src) | IC50 (c-Src) | inhibition at 0.01 µM (c-Src; at 10 nM) [%] | pIC50 [1, 2] | pIC50 [1, 3]
1 | COc1cc(Nc2c(C#N)cnc3cc(-c4ccc(CO)cc4)ccc23)c(Cl)cc1Cl [Example 101, 4-(2,4-Dichloro-5-methoxyanilino)-7-[4-(hydroxymethyl)phenyl]-3-quinolinecarbonitrile] | 7.82 |  |  | < 5.00 | 
2 | COc1cc(Nc2c(C#N)cnc3cc(-c4cccc(CCN5CCOCC5)c4)c(OC)cc23)c(Cl)cc1Cl [Example 38, 4-(2,4-Dichloro-5-methoxyanilino)-6-methoxy-7-{3-[2-(4-morpholinyl)ethyl]phenyl}-3-quinolinecarbonitrile] | 7.09 |  |  | 4.90 | 4.97
3 | 4-[(2,4-Dichloro-5-methoxyphenyl)amino]-7-[4-(4-morpholinyl)phenyl]-3-quinolinecarbonitrile [Example 128] | 8.49 |  |  |  | 6.19
4 | COc1cc(Nc2c(C#N)cnc3cc(-c4ccc(CNCCS(C)(=O)=O)cc4)ccc23)c(Cl)cc1Cl [Example 88, 4-(2,4-Dichloro-5-methoxyanilino)-7-[4-({[2-(methylsulfonyl)ethyl]amino}methyl)phenyl]-3-quinolinecarbonitrile] | 8.52 |  |  | 6.07 | 
5 | COc1cc(Nc2c(C#N)cnc3cc(-c4ccc(CN5CCOCC5)cc4)ccc23)c(Cl)cc1Cl [Example 29, 4-(2,4-Dichloro-5-methoxyanilino)-7-[4-(4-morpholinylmethyl)phenyl]-3-quinolinecarbonitrile] | 8.39 and 8.60 |  |  | 6.27 | 6.30
6 | COc1cc(Nc2c(C#N)cnc3cc(-c4ccc(CN5CCN(C)CC5)n4C)ccc23)c(Cl)cc1Cl [Example 71, 4-(2,4-Dichloro-5-methoxyanilino)-7-{1-methyl-5-[(4-methyl-1-piperazinyl)methyl]-1H-pyrrol-2-yl}-3-quinolinecarbonitrile] | 7.59 and 7.62 |  |  | 5.17 | 
7 | COc1cc(Nc2c(C#N)cnc3cc(-c4cccc(CCN5CCOCC5)c4)ccc23)c(Cl)cc1Cl [Example 28, 4-(2,4-Dichloro-5-methoxyanilino)-7-{3-[2-(4-morpholinyl)ethyl]phenyl}-3-quinolinecarbonitrile] | 7.60 |  |  | 5.39 | 
8 | CCN(CC)Cc1ccc(-c2ccc3c(Nc4cc(OC)c(Cl)cc4Cl)c(C#N)cnc3c2)cc1 [Example 87, 4-(2,4-Dichloro-5-methoxyanilino)-7-{4-[(diethylamino)methyl]phenyl}-3-quinolinecarbonitrile] | 9.34 |  |  | 6.66 | 
9 | COc1cc(Nc2c(C#N)cnc3cc(C#Cc4ccccn4)ccc23)c(Cl)cc1Cl [Example 91, 4-(2,4-Dichloro-5-methoxyanilino)-7-[2-(2-pyridinyl)ethynyl]-3-quinolinecarbonitrile] | 8.51 |  |  | < 5.00 | 
10 | COc1cc(Nc2c(C#N)cnc3cc(-c4csc(CN5CCOCC5)c4)ccc23)c(Cl)cc1C [Example 80, 4-{2-Chloro-5-methoxy-4-methylanilino)-7-[5-(4-morpholinylmethyl)-3-thienyl]-3-quinolinecarbonitrile] | 8.82 |  |  | 7.10 | 
11 | N#Cc1cnc2cc(C=CCCCN3CCOCC3)ccc2c1Nc1ccc(Cl)cc1Cl (mixture of isomers) [Example 12, 4-(2,4-Dichloroanilino)-7-[(E/Z)-5-(4-morpholin)-1-pentenyl]-3-quinolinecarbonitrile] | 7.11 |  |  | < 5.00 | 

More lines, main results first:

Row | pIC50 (c-Src) | IC50 (c-Src) | inhibition at 0.01 µM (c-Src; at 10 nM) [%] | Compound | pIC50 [1, 2] | pIC50 [1, 3]
12 | 7.47 |  |  | COc1cc(Nc2c(C#N)cnc3cc(-c4ccc(Oc5ccc(CN6CCOCC6)cc5)nc4)ccc23)c(Cl)cc1Cl [Example 193, 4-(2,4-dichloro-5-methoxyanilino)-7-{6-[4-(4-morpholinylmethyl)phenoxy]-3-pyridinyl)-3-quinolinecarbonitrile] | < 5.00 | 
13 |  | 0.18 nM (2×) and 0.55 nM |  | COc1cc(Nc2c(C#N)cnc3cc(-c4ccc(CN5CCC(C(=O)O)CC5)cc4)ccc23)c(Cl)cc1Cl [Example 237, 1-{4-[3-cyano-4-(2,4-dichloro-5-methoxyanilino)-7-quinolinyl]benzyl}-4-piperidinecarboxylic acid] | 6.31 | 6.28 and 6.39
14 | 5.30 |  |  | COc1cc(Nc2c(C#N)cnc3cc(-c4ccccc4CN4CCOCC4)ccc23)c(Cl)cc1Cl [Example 115, 4-(2,4-Dichloro-5-methoxyanilino)-7-[2-(4-morpholinylmethyl)phenyl]-3-quinolinecarbonitrile] | < 5.00 | 
15 | 8.70 |  |  | COc1ccc(Cl)c(Nc2c(C#N)cnc3cc(-c4csc(CN5CCOCC5)c4)ccc23)c1 [Example 131, 4-(2-chloro-5-methoxyanilino)-7-[5-(4-morpholinylmethyl)-3-thienyl]-3-quinolinecarbonitrile] | 7.05 | 
16 | 8.77 |  |  | COC(=O)C1CCN(Cc2ccc(-c3ccc4c(Nc5cc(OC)c(Cl)cc5Cl)c(C#N)cnc4c3)nc2)CC1 [Example 176, 1-{6-[3-cyano-4-(2,4-dichloro-5-methoxyphenylamino)-quinolin-7-yl]-pyridin-3-ylmethyl}piperidine-4-carboxylic acid methyl ester] | 7.05 | 
17 | 7.51 |  |  | COc1cc(Nc2c(C#N)cnc3cc(/C=C/C(=O)OC(C)(C)C)ccc23)c(Cl)cc1Cl [Example 142, tert-butyl (E)-3-[3-cyano-4-(2,4-dichloro-5-methoxyanilino)-7-quinolinyl]-2-propenoate] | < 5.00 | 
18 | 5.66 |  |  | COc1cc(Nc2c(C#N)cnc3cc(-c4ccccc4C=O)ccc23)c(Cl)cc1Cl [Example 114, 4-(2,4-Dichloro-5-methoxyanilino)-7-(2-formylphenyl)-3-quinolinecarbonitrile] | < 5.00 | 
19 | 7.44 |  |  | 4-(2.4-Dichloro-5-methoxyanilino)-7-(3-formyl)-3-guinolinecarbonitrile [Example 112] |  | 5.14
20 | 9.33 |  |  | COc1cc(Nc2c(C#N)cnc3cc(-c4ccc(CN5CCCCC5C(=O)O)cc4)ccc23)c(Cl)cc1Cl (centres unmarked) [Example 147, 1-{4-[3-cyano-4-(2,4-dichloro-5-methoxyanilino)-7-quinolinyl]benzyl}-2-piperidinecarboxylic acid] | 5.34 | 
21 | 7.52 |  |  | COc1cc(Nc2c(C#N)cnc3cc(-c4cnc(N5CCOCC5)nc4)ccc23)c(Cl)cc1Cl [Example 186, 4-(2,4-dichloro-5-methoxyanilino)-7-[2-(4-morpholinyl)-5-pyrimidinyl]-3-quinolinecarbonitrile] | < 5.00 | 
22 | 7.89 and 8.18 |  |  | COc1cc(Nc2c(C#N)cnc3cc(-c4ccc(CN5CCS(=O)(=O)CC5)cc4)ccc23)c(Cl)cc1Cl [Example 150, 4-[(2,4-dichloro-5-methoxyphenyl)amino]-7-{4-[(1,1-dioxido-4-thiomorpholinyl)methyl]phenyl}-3-quinolinecarbonitrile] | 6.30 | 6.28
23 | 8.00 |  |  | COc1cc(Nc2c(C#N)cnc3cc(-c4ccc(-c5nnn[nH]5)cc4)ccc23)c(Cl)cc1Cl [Example 105] | < 5.00 | 5.23
24 |  |  | 28 | COc1cc(Nc2c(C#N)cnc3cc(-c4ccc(-c5ccccc5)cc4)ccc23)c(Cl)cc1Cl [Example 165, 7-[1,1'-biphenyl]-4-yl-4-(2,4-dichloro-5-methoxyanilino)-3-quinolinecarbonitrile] | < 5.00 | 
